Literature values as cited in patent EP4160208A1, “URINE SEDIMENT STAINING LIQUID” (TOYOBO CO., LTD., priority 2020, dated 2021).

Row | pKa | SMILES
1 | 6.80 | NC(=O)CN(CC(=O)O)CC(=O)O [ADA]
2 | 7.15 | O=S(=O)(O)CCN(CCO)CCO [BES]
3 | 7.50 | O=S(=O)(O)CCNC(CO)(CO)CO [TES]
4 | 8.15 | O=C(O)CNC(CO)(CO)CO [Tricine]

Row | SMILES | pKa
5 | O=S(=O)(O)CCN1CCN(CCO)CC1 [HEPES] | 7.55
